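96-well plates; 48 h exposure; 5 concentrations. Endpoints by linear interpolation between flanking doses. Not reached: highest tested concentration assigned. Abbreviation: GI50, concentration required for 50% inhibition of growth. Definition used: TGI = concentration required for complete inhibition of growth.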
Columns and labels:
Assay in all cases: DTP human tumour cell line panel, 48 h
UO-31 renal = tested on: UO-31 renal
NCI-H522 lung = tested on: NCI-H522 lung
MDA-N = tested on: MDA-N
SK-MEL-28 melanoma = tested on: SK-MEL-28 melanoma
OVCAR-5 ovarian = tested on: OVCAR-5 ovarian
SN12C renal = tested on: SN12C renal
DU-145 prostate = tested on: DU-145 prostate
UACC-62 melanoma = tested on: UACC-62 melanoma
SNB-75 CNS = tested on: SNB-75 CNS
RXF 393 renal = tested on: RXF 393 renal

Compound | TGI (UO-31 renal) | TGI (NCI-H522 lung) | TGI (MDA-N) | TGI (SK-MEL-28 melanoma) | TGI (OVCAR-5 ovarian) | TGI (SN12C renal) | TGI (DU-145 prostate) | TGI (UACC-62 melanoma) | TGI (SNB-75 CNS) | TGI (RXF 393 renal) | GI50 (UO-31 renal) | GI50 (NCI-H522 lung) | GI50 (SK-MEL-28 melanoma) | GI50 (OVCAR-5 ovarian) | GI50 (SN12C renal) | GI50 (SNB-75 CNS) | GI50 (RXF 393 renal) | GI50 (DU-145 prostate) | GI50 (UACC-62 melanoma)
c1ccc2c(c1)CCc1c-2n(CCN2CCOCC2)c2ccccc12 | > 100 µM | 28.6 µM | > 100 µM | > 100 µM | > 100 µM | > 100 µM | > 100 µM | > 100 µM |  |  |  |  |  |  |  |  |  |  | 
CC(=O)Oc1c2oc3ccc(Cl)cc3c(=O)c2c(O)c2ccsc12 | > 100 µM |  | > 100 µM | > 100 µM | > 100 µM | > 100 µM | > 100 µM | > 100 µM | > 100 µM | > 100 µM |  |  |  |  |  |  |  |  | 
NNC(=O)Cn1c2ccc(Br)cc2c2nc3ccccc3nc21 | > 100 µM |  | > 100 µM | > 100 µM | > 100 µM | > 100 µM | > 100 µM | > 100 µM | > 100 µM | > 100 µM |  |  |  |  |  |  |  |  | 
COc1ccc(-n2c(=O)n(C)c(=O)n2-c2ccc(OC)cc2)cc1 | > 100 µM |  | > 100 µM | > 100 µM | > 100 µM | > 100 µM | > 100 µM | > 100 µM | > 100 µM |  |  |  |  |  |  |  |  |  | 
COC(=O)c1c(O)ccc2c1c1c(n2Cc2cccc(C)c2)C(=O)c2ccccc2C1=O | 19.8 µM | 26.8 µM | 33.7 µM | 29.1 µM | 52.7 µM | 22.2 µM | 32.6 µM |  |  | 26.1 µM |  |  |  |  |  |  |  |  | 
COc1ccc2nc3cc([N+](=O)[O-])ccc3c(Nc3ccc(S(=O)(=O)NC(C)=O)cc3)c2c1 | > 100 µM | > 100 µM | > 100 µM | > 100 µM | > 100 µM | > 100 µM | > 100 µM | > 100 µM |  | > 100 µM |  |  |  |  |  |  |  |  | 
O=C(c1cc(Cl)ccc1Cl)N1CCN(C(=O)c2cc(Cl)ccc2Cl)CC1 | > 100 µM | > 100 µM | > 100 µM | > 100 µM | > 100 µM | > 100 µM | > 100 µM |  | > 100 µM | > 100 µM |  |  |  |  |  |  |  |  | 
O=C1C(=O)c2ccccc2C(O)=C1CCCc1ccc(Oc2ccccc2)cc1 | 32.6 µM | 34.2 µM |  | > 100 µM | > 100 µM | > 100 µM |  | 15 µM | 73.9 µM | 64.1 µM |  |  |  |  |  |  |  |  | 
Cc1cc(N2CCCC2)nc(N(CCNc2ccnc3cc(Cl)ccc23)Cc2ccco2)n1 | 39.8 µM | > 100 µM |  | > 100 µM | > 100 µM | > 100 µM | > 100 µM | 78.2 µM | 60.7 µM | 6.74 µM | 2.58 µM | 3.59 µM | 3.94 µM | 4.93 µM | 3.88 µM | 10.7 µM | 2.14 µM | 6.72 µM | 4.11 µM
O=C(OCCN=c1c2ccccc2ccc2ccccc12)c1ccc([N+](=O)[O-])cc1 | > 100 µM |  | > 100 µM | > 100 µM | > 100 µM | > 100 µM | > 100 µM | > 100 µM | > 100 µM | > 100 µM |  |  |  |  |  |  |  |  | 
Cc1cn(Cc2cnnn2CC2OC(n3cc(C)c(=O)[nH]c3=O)CC2O)c(=O)[nH]c1=O (stereo unspecified) | > 100 µM |  | > 100 µM | > 100 µM | > 100 µM | > 100 µM | > 100 µM | > 100 µM |  | > 100 µM |  |  |  |  |  |  |  |  | 
c1cn(C23C4C5C6C4C2C6C53)cn1 (stereo unspecified) |  | > 100 µM | > 100 µM | > 100 µM | > 100 µM | > 100 µM | > 100 µM |  | > 100 µM |  |  |  |  |  |  |  |  |  | 
Cc1c(NC(=O)CSC(=S)N2CCN(Cc3ccccc3)CC2)c(=O)n(-c2ccccc2)n1C | > 100 µM | > 100 µM | > 100 µM | > 100 µM | > 100 µM | > 100 µM | > 100 µM |  |  | > 100 µM |  |  |  |  |  |  |  |  | 
CCOC(=O)c1nc2ccc(C(F)(F)F)cc2nc1Oc1cc(OC)cc(OC)c1 | > 100 µM |  | > 100 µM | > 100 µM | > 100 µM | > 100 µM | > 100 µM | > 100 µM | 75.6 µM | > 100 µM |  |  |  |  |  |  |  |  | 
COc1ccc(-c2c(C#N)c(S)n(NS(=O)(=O)c3ccc(C)cc3)c(=O)c2C#N)cc1 |  | 33.7 µM | 37.5 µM | 63.2 µM | 60.7 µM | 34.8 µM |  | 31.5 µM | > 100 µM | 42.5 µM |  |  |  |  |  |  |  |  | 
COc1ccc(C(=O)/C=C/c2c(Cl)c3c(c(OC)c2Cl)OCC(=O)N3)cc1 |  | 3.24 µM |  | 5.22 µM | > 100 µM |  | > 100 µM | 3.59 µM | 9.71 µM | 3.54 µM |  | 1.55 µM | 2.18 µM | 3.86 µM |  | 2.23 µM | 1.79 µM | 3.17 µM | 1.68 µM
C/C(Nc1ccc(F)cc1)=C1/CCOC1=O | > 100 µM | > 100 µM |  | > 100 µM |  | > 100 µM | > 100 µM | > 100 µM | > 100 µM | > 100 µM |  |  |  |  |  |  |  |  | 
COc1ccc2c(c1)c(CC(=O)O)c(C)n2C(=O)c1ccc(Cl)cc1 | > 100 µM | > 100 µM | > 100 µM | > 100 µM | > 100 µM | > 100 µM | > 100 µM |  | > 100 µM |  |  |  |  |  |  |  |  |  | 
O=c1[nH]nc(-c2ccccc2)n1/N=C/c1cccnc1 | > 100 µM | > 100 µM | > 100 µM | > 100 µM | > 100 µM | > 100 µM | > 100 µM |  | > 100 µM | > 100 µM |  |  |  |  |  |  |  |  | 
CN(C)c1nc2oc(-c3ccccc3)c(-c3ccccc3)c2c2nnnn12 | > 100 µM | > 100 µM |  | > 100 µM | > 100 µM | > 100 µM | > 100 µM | > 100 µM | > 100 µM | > 100 µM |  |  |  |  |  |  |  |  | 
C(CCCCc1nnc(N2CCCCC2)o1)CCCc1nnc(N2CCCCC2)o1 | > 100 µM | > 100 µM |  | > 100 µM | > 100 µM | > 100 µM | > 100 µM |  | > 100 µM | > 100 µM |  |  |  |  |  |  |  |  | 

From PubChem BioAssay (NCI)
